Measured values: patent US10258701B2, “Labeled evans blue dye derivative for in vivo serum albumin labeling” (The United States of America, as represented by the …, priority 2015, dated 2019)

What was measured:
[1] = Ex vivo biodistribution in Balb/C mice with absorbed doses extrapolated to adult human male (OLINDA/EXM); conditions: mouse
Experimental: For ex vivo biodistribution and dosimetry evaluation, each BALB/C mouse was injected with 1.85 MBq of ^68Ga-NEB. At different time points after tracer injection (5 min, 30 min, 1 h, 3 h and 6 h, n=5/time point), the mice were sacrificed for tissue and organ collection, including blood, muscle, bone, liver, kidneys, spleen, pancreas, stomach, intestine, heart and lung. The samples were wet weighed, and measured for radioactivity in a γ-counter (Wallac 1470-002, Perkin-Elmer). The results were presented as percentage injected dose per gram of tissue (% ID/g). For each mouse, the radioactivity of the tissue samples was calibrated against a known aliquot of the injected tracer and normalized to a mean body mass of each group. Values were expressed as mean±SD (n=5/group). Determination of organ doses for a reference human was made using the OLINDA/EXM program (Vanderbilt University, Nashville, Tenn.).
In order to estimate the safe dose for clinical use, an ex vivo biodistribution study was performed in normal Balb/C mice. Absorbed doses for major organs and whole body were then extrapolated to adult human male of a body weight of 73.7 Kg using OLINDA EXM software. The kidneys received the highest absorbed doses (mean absorbed dose, 0.104˜0.135 mSv/MBq), resulting from abundant blood supply and tracer excretion through the renal urinary tract. The mean effective dose of ^68Ga-NEB was 0.0151 to 0.0159 mSv/MBq. With an injected dose of 185 MBq (5 mCi), the patient would be exposed to an effective radiation dose of 2.94 mSv, which is much lower than the dose limit of 20 mSv for the second risk category defined by the 2007 International Commission on Radiological Protection.

[2] = Multiple time point whole-body PET in healthy volunteers (SUV); type: in vivo, human
Experimental: (§1) This clinical study was approved by the Institute Review Board of Peking Union Medical College Hospital, Chinese Academy of Medical Sciences and Peking Union Medical College. Three healthy volunteers (2 males and 1 female) were enrolled with written informed consent to validate the safety of ^68Ga-NEB. No fasting, hydration or other specific preparation was requested on the day of imaging. Any unusual or adverse clinical symptoms were recorded on the day of imaging and during the 2-week follow-up period.
All three healthy volunteers underwent whole-body PET acquisitions (Biograph mCT PET/CT system, Siemens) at multiple time points after tracer injection. After the whole-body low-dose CT scan (140 kV, 35 mA, pitch 1:1, layer 5 mm, layer spacing 3 mm, matrix 512×512, FOV 70 cm), 111-148 MBq (3-4 mCi) of ^68Ga-NEB was injected intravenously. The whole body (from the top of skull to the middle of femur) of each volunteer was covered by 7 bed positions. The acquisition duration was 40 sec/bed position for the 5 min, 10 min and 15 min time points, 2 min/bed position for the 30 min, 45 min, 60 min, 75 min and 90 min time points.
(§2) A Siemens MMWP workstation was used for post-processing. Visual analysis was used to determine the general biodistribution and the temporal and inter-subject stability. The volume of interest (VOI) of 12 normal organs/tissues and concerned lesions were drawn on the serial images. The radioactivity concentration and standardized uptake value (SUV) in the VOIs were obtained through the software. Organ dosimetry was calculated by using organ-level internal dose assessment software. All quantitative data were expressed as mean±standard deviation.
From 5 to 90 min, no dramatic distribution change was observed, confirming the in vivo stability and long blood pool retention of ^68Ga-NEB (FIG. 28). Increased bladder accumulation was observed over time.

[3] = human, in vivo
Description: (§3) Dosimetry study confirmed the safety with acceptable absorbed doses by critical organs even with multiple injections for one patient.
as §2
The mean absorbed radiation doses based on multiple time point PET imaging of three volunteers were similar to those based on mouse biodistribution data. The major organs that received relatively high doses were kidneys, liver, spleen, and heart wall. The bladder wall also received high exposure due to renal excretion of the radioactivity (0.0683±0.0090 mSv/MBq). The whole body absorbed dose was 0.0151±0.0001 mSv/MBq with an effective dose of 0.0179±0.0003 mSv/MBq.

[4] = Safety observation in healthy volunteers and patients; type: in vivo, human
Description: as §3, §1
Vessel branches in and out of major organs and limbs can also be clearly identified.

SMILES: Cc1cc(-c2ccc(NC(=O)CN3CCN4CCN(CC3)CC(=O)[O][68GaH][O]C(=O)C4)c(C)c2)ccc1N=Nc1ccc2c(S(=O)(=O)O)cc(S(=O)(=O)O)c(N)c2c1O [^68Ga-NEB]
- Absorbed Dose, Adrenals ([1]; BALB/c): 0.0137~0.0141 mSv/MBq
- Absorbed Dose, Breasts ([1]; BALB/c): 0.00881~0.01 mSv/MBq
- Absorbed Dose, Gallbladder Wall ([1]; BALB/c): 0.0147~0.0149 mSv/MBq
- Absorbed Dose, Heart Wall ([1]; BALB/c): 0.0329~0.0453 mSv/MBq
- Absorbed Dose, LLI Wall ([1]; BALB/c): 0.0104~0.0119 mSv/MBq
- Absorbed Dose, Liver ([1]; BALB/c): 0.0444~0.0575 mSv/MBq
- Absorbed Dose, Lungs ([1]; BALB/c): 0.0197~0.0236 mSv/MBq
- Absorbed Dose, Muscle ([1]; BALB/c): 0.00946~0.011 mSv/MBq
- Absorbed Dose, Osteogenic Cells ([1]; BALB/c): 0.0133~0.0153 mSv/MBq
- Absorbed Dose, Ovaries ([1]; BALB/c): 0.0108~0.0122 mSv/MBq
- Absorbed Dose, Pancreas ([1]; BALB/c): 0.0625~0.0821 mSv/MBq
- Absorbed Dose, Red Marrow ([1]; BALB/c): 0.00882~0.00973 mSv/MBq
- Absorbed Dose, Skin ([1]; BALB/c): 0.00804~0.00925 mSv/MBq
- Absorbed Dose, Small Intestine ([1]; BALB/c): 0.0114~0.0128 mSv/MBq
- Absorbed Dose, Spleen ([1]; BALB/c): 0.0263~0.0317 mSv/MBq
- Absorbed Dose, Stomach Wall ([1]; BALB/c): 0.0117~0.0127 mSv/MBq
- Absorbed Dose, Testes ([1]; BALB/c): 0.00896~0.0103 mSv/MBq
- Absorbed Dose, Thymus ([1]; BALB/c): 0.0101~0.0112 mSv/MBq
- Absorbed Dose, Thyroid ([1]; BALB/c): 0.00936~0.0107 mSv/MBq
- Absorbed Dose, Total Body ([1]; BALB/c): 0.0146~0.0146 mSv/MBq
- Absorbed Dose, ULI Wall ([1]; BALB/c): 0.0115~0.0128 mSv/MBq
- Absorbed Dose, Urinary Bladder Wall ([1]; BALB/c): 0.0102~0.0117 mSv/MBq
- Absorbed Dose, Uterus ([1]; BALB/c): 0.0108~0.0123 mSv/MBq
- Effective Dose Equivalent ([1]; BALB/c): 0.0251~0.0297 mSv/MBq
- effective radiation dose to the patient [1]: 2.94 mSv
- average standardized uptake value, Blood ([2]; 5 min after i.v.): 7.97 ± 0.15
- average standardized uptake value, Bone ([2]; 5 min after i.v.): 2.10 ± 0.26
- average standardized uptake value, Kidneys ([2]; 5 min after i.v.): 4.40 ± 0.26
- average standardized uptake value, Liver ([2]; 5 min after i.v.): 3.80 ± 0.44
- average standardized uptake value, Lung ([2]; 5 min after i.v.): 1.53 ± 0.15
- average standardized uptake value, Muscle ([2]; 5 min after i.v.): 0.53 ± 0.21
- average standardized uptake value, Pancreas ([2]; 5 min after i.v.): 2.13 ± 0.40
- average standardized uptake value, S. Intestine ([2]; 5 min after i.v.): 1.73 ± 0.25
- average standardized uptake value, Spleen ([2]; 5 min after i.v.): 4.10 ± 0.36
- average standardized uptake value, Stomach ([2]; 5 min after i.v.): 1.23 ± 0.15
- average standardized uptake value, Blood ([2]; 10 min after i.v.): 7.53 ± 0.25
- average standardized uptake value, Bone ([2]; 10 min after i.v.): 1.93 ± 0.12
- average standardized uptake value, Kidneys ([2]; 10 min after i.v.): 4.23 ± 0.49
- average standardized uptake value, Liver ([2]; 10 min after i.v.): 3.70 ± 0.61
- average standardized uptake value, Lung ([2]; 10 min after i.v.): 1.47 ± 0.29
- average standardized uptake value, Muscle ([2]; 10 min after i.v.): 0.60 ± 0.10
- average standardized uptake value, Pancreas ([2]; 10 min after i.v.): 2.03 ± 0.15
- average standardized uptake value, S. Intestine ([2]; 10 min after i.v.): 1.57 ± 0.12
- average standardized uptake value, Spleen ([2]; 10 min after i.v.): 4.07 ± 0.47
- average standardized uptake value, Stomach ([2]; 10 min after i.v.): 1.50 ± 0.20
- average standardized uptake value, Blood ([2]; 15 min after i.v.): 7.17 ± 0.35
- average standardized uptake value, Bone ([2]; 15 min after i.v.): 1.83 ± 0.15
- average standardized uptake value, Kidneys ([2]; 15 min after i.v.): 4.03 ± 0.50
- average standardized uptake value, Liver ([2]; 15 min after i.v.): 3.73 ± 0.59
- average standardized uptake value, Lung ([2]; 15 min after i.v.): 1.4 ± 0.17
- average standardized uptake value, Muscle ([2]; 15 min after i.v.): 0.60 ± 0.17
- average standardized uptake value, Pancreas ([2]; 15 min after i.v.): 1.90 ± 0.26
- average standardized uptake value, S. Intestine ([2]; 15 min after i.v.): 1.73 ± 0.12
- average standardized uptake value, Spleen ([2]; 15 min after i.v.): 4.00 ± 0.52
- average standardized uptake value, Stomach ([2]; 15 min after i.v.): 1.23 ± 0.12
- average standardized uptake value, Blood ([2]; 30 min after i.v.): 6.93 ± 0.21
- average standardized uptake value, Bone ([2]; 30 min after i.v.): 1.67 ± 0.15
- average standardized uptake value, Kidneys ([2]; 30 min after i.v.): 3.77 ± 0.29
- average standardized uptake value, Liver ([2]; 30 min after i.v.): 3.57 ± 0.46
- average standardized uptake value, Lung ([2]; 30 min after i.v.): 1.30 ± 0.17
- average standardized uptake value, Muscle ([2]; 30 min after i.v.): 0.57 ± 0.12
- average standardized uptake value, Pancreas ([2]; 30 min after i.v.): 1.67 ± 0.15
- average standardized uptake value, S. Intestine ([2]; 30 min after i.v.): 1.63 ± 0.15
- average standardized uptake value, Spleen ([2]; 30 min after i.v.): 3.90 ± 0.61
- average standardized uptake value, Stomach ([2]; 30 min after i.v.): 1.23 ± 0.06
- average standardized uptake value, Blood ([2]; 45 min after i.v.): 6.70 ± 0.26
- average standardized uptake value, Bone ([2]; 45 min after i.v.): 1.50 ± 0.20
- average standardized uptake value, Kidneys ([2]; 45 min after i.v.): 3.87 ± 0.32
- average standardized uptake value, Liver ([2]; 45 min after i.v.): 3.50 ± 0.52
- average standardized uptake value, Lung ([2]; 45 min after i.v.): 1.30 ± 0.20
- average standardized uptake value, Muscle ([2]; 45 min after i.v.): 0.53 ± 0.06
- average standardized uptake value, Pancreas ([2]; 45 min after i.v.): 1.67 ± 0.15
- average standardized uptake value, S. Intestine ([2]; 45 min after i.v.): 1.63 ± 0.06
- average standardized uptake value, Spleen ([2]; 45 min after i.v.): 3.77 ± 0.57
- average standardized uptake value, Stomach ([2]; 45 min after i.v.): 1.23 ± 0.06
- average standardized uptake value, Blood ([2]; 60 min after i.v.): 6.20 ± 0.17
- average standardized uptake value, Bone ([2]; 60 min after i.v.): 1.37 ± 0.06
- average standardized uptake value, Kidneys ([2]; 60 min after i.v.): 3.60 ± 0.10
- average standardized uptake value, Liver ([2]; 60 min after i.v.): 3.47 ± 0.47
- average standardized uptake value, Lung ([2]; 60 min after i.v.): 1.23 ± 0.06
- average standardized uptake value, Muscle ([2]; 60 min after i.v.): 0.50 ± 0.00
- average standardized uptake value, Pancreas ([2]; 60 min after i.v.): 1.43 ± 0.15
- average standardized uptake value, S. Intestine ([2]; 60 min after i.v.): 1.47 ± 0.15
- average standardized uptake value, Spleen ([2]; 60 min after i.v.): 3.73 ± 0.42
- average standardized uptake value, Stomach ([2]; 60 min after i.v.): 1.10 ± 0.00
- average standardized uptake value, Blood ([2]; 75 min after i.v.): 6.03 ± 0.12
- average standardized uptake value, Bone ([2]; 75 min after i.v.): 1.27 ± 0.12
- average standardized uptake value, Kidneys ([2]; 75 min after i.v.): 3.43 ± 0.15
- average standardized uptake value, Liver ([2]; 75 min after i.v.): 3.43 ± 0.49
- average standardized uptake value, Lung ([2]; 75 min after i.v.): 1.10 ± 0.17
- average standardized uptake value, Muscle ([2]; 75 min after i.v.): 0.47 ± 0.06
- average standardized uptake value, Pancreas ([2]; 75 min after i.v.): 1.37 ± 0.21
- average standardized uptake value, S. Intestine ([2]; 75 min after i.v.): 1.33 ± 0.21
- average standardized uptake value, Spleen ([2]; 75 min after i.v.): 4.93 ± 2.10
- average standardized uptake value, Stomach ([2]; 75 min after i.v.): 1.07 ± 0.12
- average standardized uptake value, Blood ([2]; 90 min after i.v.): 5.97 ± 0.15
- average standardized uptake value, Bone ([2]; 90 min after i.v.): 1.23 ± 0.15
- average standardized uptake value, Kidneys ([2]; 90 min after i.v.): 3.30 ± 0.20
- average standardized uptake value, Liver ([2]; 90 min after i.v.): 3.33 ± 0.58
- average standardized uptake value, Lung ([2]; 90 min after i.v.): 1.07 ± 0.12
- average standardized uptake value, Muscle ([2]; 90 min after i.v.): 0.77 ± 0.64
- average standardized uptake value, Pancreas ([2]; 90 min after i.v.): 1.37 ± 0.31
- average standardized uptake value, S. Intestine ([2]; 90 min after i.v.): 1.17 ± 0.32
- average standardized uptake value, Spleen ([2]; 90 min after i.v.): 3.57 ± 0.55
- average standardized uptake value, Stomach ([2]; 90 min after i.v.): 1.03 ± 0.15
- crossing of the blood-brain barrier ([2]; PET, normal brain tissue negligible accumulation): does not cross the blood-brain barrier
- effective dose [3]: 0.0179±0.0003 mSv/MBq
- mean absorbed radiation dose, bladder wall [3]: 0.0683±0.0090 mSv/MBq
- radiation dose a patient would be exposed to [3]: 2.65 mSv
- whole body absorbed dose [3]: 0.0151±0.0001 mSv/MBq
- reported discomfort, adverse clinical events, toxicity, allergies ([4]; all healthy volunteers and patients): no discomfort or adverse clinical events, no elicited toxicity, and no allergies
- adverse symptoms during the entire procedure and 2 weeks follow-up ([4]; healthy volunteers, mean injected dose 3.77±0.28 mCi): no adverse symptoms were noticed and/or reported
